Data taken from PubChem BioAssay AID1645864 (Buhrlage Lab, Dana-Farber Cancer Institute and Novartis …, 2021).
The source made the active and inactive calls.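 How the source made its calls: active means maximal inhibition of USP17 at or above 30% in the confirmation dose-response, a value not among the printed readouts; inactive means the rest.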

Target: Ubiquitin carboxyl-terminal hydrolase 17-like protein 5 (Homo sapiens) (UniProt A8MUK1)
Experiment: ubiquitin-specific protease 17 DUB inhibitors, concentration-effect assay, cell-free, verification of initial screening actives (AID 1645864)
Settings: purified USP17, ubiquitin-rhodamine cleavage fluorescence, 3 h

Chain of Ubiquitin carboxyl-terminal hydrolase 17-like protein 5 (Homo sapiens) (A8MUK1 whole entry, looked up): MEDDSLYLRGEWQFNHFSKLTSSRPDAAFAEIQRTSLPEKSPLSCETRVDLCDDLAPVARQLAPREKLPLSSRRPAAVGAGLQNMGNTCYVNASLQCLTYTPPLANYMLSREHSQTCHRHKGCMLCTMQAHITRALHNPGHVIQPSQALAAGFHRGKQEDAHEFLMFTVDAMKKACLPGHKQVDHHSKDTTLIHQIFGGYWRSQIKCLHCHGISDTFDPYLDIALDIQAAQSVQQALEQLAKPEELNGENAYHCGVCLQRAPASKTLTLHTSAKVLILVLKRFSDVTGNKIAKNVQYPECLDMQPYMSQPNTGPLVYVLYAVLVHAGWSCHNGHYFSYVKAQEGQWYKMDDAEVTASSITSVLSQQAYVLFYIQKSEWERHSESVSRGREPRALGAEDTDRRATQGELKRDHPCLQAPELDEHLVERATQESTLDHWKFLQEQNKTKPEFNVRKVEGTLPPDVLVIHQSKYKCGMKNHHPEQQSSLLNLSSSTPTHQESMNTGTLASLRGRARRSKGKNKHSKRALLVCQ

IC50 | Structure (SMILES)
> 50 µM (inactive) | O=C(Cc1noc2ccccc12)N1CCN(c2ccc([N+](=O)[O-])cc2)CC1
3.15 µM | COc1ccc(NC(=O)CNC(=O)c2ccc3nc(-n4cccc4)sc3c2)cc1
38.5 µM | COc1c(O)c(O)c2c(=O)cc(-c3ccc(O)cc3)oc2c1OC
> 50 µM (inactive) | CC(=O)N1CCc2cc(S(=O)(=O)NCc3ccc(C)cc3)ccc21
> 50 µM (inactive) | Fc1ccc(Cn2ccc(-c3cnc(-c4ccccc4)s3)n2)cc1
> 50 µM (inactive) | O=C(Nc1ccccc1)c1cn(-c2cc(N3CCCC3)ncn2)cn1
> 50 µM (inactive) | CCC(C(=O)NCc1ccncc1)N(c1cccc(Cl)c1)S(C)(=O)=O (stereo not given)
21.2 µM | Cc1ccc(Cn2cc(-c3noc(-c4ccc[nH]4)n3)nn2)cc1
> 50 µM (inactive) | Cc1ccc(N2CC(c3nc4ccccc4n3CCCCOc3ccccc3)CC2=O)cc1 (stereo not given)
24.4 µM | Cc1cccc(S(=O)(=O)N2CCc3nc4ccccc4n3CC2)c1
23.9 µM | Cc1cc(C(=O)N2CCOCC2)c(C)n1-c1ccc(O)cc1
> 50 µM (inactive) | CC(C)OC(=O)c1cc2c(ccn2C)n1CC(=O)N1CCN(C(=O)c2ccco2)CC1
> 50 µM (inactive) | CS(=O)(=O)N1CCCc2cc(C(=O)Nc3ccc(Oc4ccccc4)cc3)ccc21
31.4 µM | Cc1cc(NC(=O)COc2ccc3oc4ccccc4c3c2)no1
6.96 µM | CC1CCc2sc(NC(=O)c3ccccc3Oc3ccccc3)c(C(N)=O)c2C1 (stereo not given)
2.65 µM | Cc1ccc2cccc(OCc3nnc(SCC(=O)c4ccc(Cl)cc4)n3C)c2n1
1.9 µM | COc1cc(NC(=O)Cn2nc(-c3ccc(F)cc3)ccc2=O)ccc1-n1cnnn1
30.3 µM | COc1ccc(-c2cc(-c3ccc(F)cc3)[nH]c(=O)c2C#N)cc1
23.7 µM | CC(=O)N1CCc2cc(S(=O)(=O)NCCC(=O)Nc3cccc(C)c3C)ccc21
0.226 µM | Cc1ccc(-n2c(-c3ccccc3)cn3c4c(=O)[nH]c(=O)n(C)c4nc23)cc1Cl
> 50 µM (inactive) | COc1cccc(N2CCN(C(=O)c3cc(NC(C)=O)cc4nc(C)ccc34)CC2)c1

IC50 | Structure (SMILES)
> 50 µM (inactive) | O=C(NCc1ccc(F)cc1)C1CCCN(c2cnc3nccnc3c2)C1 (stereo not given)
2.05 µM | CC1=C(C)C(c2c(-c3ccc(C)cc3)[nH]c3ccccc23)N(C(C)(C)C)C1=O (stereo not given)
> 50 µM (inactive) | O=c1ccc(-c2noc(-c3ccc4cc[nH]c4c3)n2)c[nH]1
> 50 µM (inactive) | COc1ccc(/C=C\c2nccc3c2[nH]c2ccccc23)cc1
3.06 µM | CCc1c(C)c(C#N)c2nc3ccccc3n2c1N1CCN(C2CCCC2)CC1
> 50 µM (inactive) | Cc1ccc(NC(=O)c2c3c(nc4ccccc24)CCCCC3)c(C)c1
> 50 µM (inactive) | O=C(/C=C/c1ccc(F)cc1)Nc1ccc2c(c1)OCCO2
46.6 µM | c1ccc(-n2nnc(-c3noc(-c4ccccn4)n3)c2-c2ccncc2)cc1
20.1 µM | O=C(Cc1nnc2c(-c3nc(C4CC4)no3)cccn12)Nc1ccccc1
> 50 µM (inactive) | CCc1ccc2[nH]c(=O)c(CN(CCc3ccc(OC)c(OC)c3)C(=O)Nc3ccccc3)cc2c1
> 50 µM (inactive) | O=C(Nc1nc2c(s1)COCC2)c1cc(-c2ccco2)[nH]n1
29.1 µM | Cc1nn(-c2cc(N3CCOCC3)ncn2)c(C)c1CCC(=O)Nc1ccc(C(C)C)cc1
19.9 µM | O=C(CN1CCCCC1)Nc1nnc(-c2ccc([N+](=O)[O-])cc2)s1
> 50 µM (inactive) | COc1ccc(/C=C/c2ccnc3nc(-n4cccc4)nn23)cc1
22.6 µM | Cc1ccc(C)c(S(=O)(=O)N2CCN(c3ccc4nnc(-c5ccco5)n4n3)CC2)c1
2.34 µM | Cc1ccc(-c2noc(-c3nnc(SCC(=O)NC4CCCC4)n3C)n2)cc1
30.1 µM | Fc1cccc(-n2cc(-c3noc(-c4ccccn4)n3)nn2)c1
22.1 µM | O=c1[nH]c(C2CCN(S(=O)(=O)c3ccc(S(=O)(=O)NC4CCCCC4)cc3)CC2)nc2c1nnn2Cc1c(F)cccc1Cl
26.4 µM | Cc1cccc(NC(=O)CN2C(=O)COc3cc(S(=O)(=O)N4CCCC4)ccc32)c1C
11.6 µM | N#Cc1ccc(NC(=O)c2ccc(S(=O)(=O)N3CCCCC3)cc2)cc1
> 50 µM (inactive) | CCn1ccc2c(cc(C(=O)Nc3ccccc3F)n2C)c1=O

IC50 | Structure (SMILES)
> 50 µM (inactive) | COc1ccc(CCC(=O)Nc2ccc3c(c2)Sc2ncccc2C(=O)N3C)cc1
24.2 µM | Cc1cc(N2CCOCC2)nc2ccc(NC(=O)CCC(=O)Nc3ccc(F)cc3)cc12
9.31 µM | COc1cccc(NC(=O)Nc2ccc3nc4n(c(=O)c3c2)CCCC4)c1
13.9 µM | COc1cccc(NC(=O)Nc2nccn(-c3ccc(F)cc3)c2=O)c1
31.3 µM | Cc1cc2nc(-c3ccc(SCc4ccccn4)nc3)[nH]c2cc1C
36.9 µM | CSc1nc(SCC(N)=O)c2c3c(sc2n1)COC(C)(C)C3
19.5 µM | CC(C)c1cc2c(c(O)c1O)[C@@]13CCCC(C)(C)[C@@H]1C[C@@H]2OC3=O
> 50 µM (inactive) | CC(=O)c1ccc(N2C(=O)N(Cc3cccc([N+](=O)[O-])c3)c3ccccc3S2(=O)=O)cc1
16.1 µM | CCN(C(=O)c1cc2c(Cl)nc3ccccc3c2s1)c1ccccc1F
> 50 µM (inactive) | O=C(NCc1ccccc1)c1ccc(-c2ccc(N3CCCC3)nn2)cc1
> 50 µM (inactive) | Cc1nc2cccnc2n1C1CCN(C(=O)c2cc3cc(Cl)ccc3[nH]2)C1 (stereo not given)
29.8 µM | Cc1ccc(S(=O)(=O)c2cnc(SCC(=O)Nc3ccc(Cl)cc3)nc2N)cc1C
> 50 µM (inactive) | Cc1noc(C)c1S(=O)(=O)Nc1ccc(C(=O)Nc2ccc3c(c2)OCCO3)cc1
20.6 µM | COC(=O)c1sc2ccccc2c1NC(=O)c1ccc(Br)s1
37.3 µM | O=C(/C=C/c1ccc(F)cc1)N1CCc2ccccc2C1
> 50 µM (inactive) | Cc1nn(-c2ccccc2)c2c1N=C1C(Cl)=CC(Cl)=CN1C21C(=O)Nc2ccccc21 (stereo not given)
> 50 µM (inactive) | O=C(COC(=O)Cn1cnc2ccccc21)Nc1ccc2c(c1)OCCO2
25.3 µM | O=C1CC(C(=O)Nc2ccccc2F)n2nc(-c3ccccc3)cc2N1 (stereo not given)
> 50 µM (inactive) | CC1=C[C@H]2N(c3ccc(C)cc31)[C@H](C(=O)c1cccs1)[C@@H](C(=O)c1ccc(F)cc1)[C@]21C(=O)Nc2ccccc21
37.5 µM | O=C(NCc1ccc(Br)cc1)c1ccc(-c2cccnc2)nc1
> 50 µM (inactive) | C=C1Nc2ccccc2C(=O)N1c1cccc(NC(=O)c2ccc(C)c(C)c2)c1

Structure (SMILES) | IC50
COc1ccc(OC)c(-c2c(C#N)c(C)nc3c2N2CCC3CC2)c1 | 6.92 µM
Cc1cc(C)nc(-n2nc(C)c3c2NC(=O)CSC3c2ccccc2F)n1 (stereo not given) | 43 µM
